Data: patent US11236069B2, “KIF18A inhibitors” (AMGEN INC., priority 2018, dated 2022)

Biological target: Recombinant human KIF18A (1-467 His-tagged) protein (Homo sapiens (Human), UniProt Q8NI77)
Assay: KIF18A Enzyme Assay: microtubule-stimulated ATPase activity (ADP-Glo)
Settings: read-out: KIF18A ATPase IC50; 30 nM KIF18A, 30 μg/mL pig microtubules, ATP at Km 75 μM, ADP-Glo luminescence
Excerpt: KIF18A Enzyme Assay: Microtubule-stimulated ATPase activity assay is used to measure KIF18A enzyme activity after treatment with compound. Compounds were 2-fold serially diluted in DMSO (Sigma Inc) over 22-point concentration range. […] The assay measures ADP formed from the ATPase reaction.

Chain of Recombinant human KIF18A (1-467 His-tagged) protein (Q8NI77 1-467): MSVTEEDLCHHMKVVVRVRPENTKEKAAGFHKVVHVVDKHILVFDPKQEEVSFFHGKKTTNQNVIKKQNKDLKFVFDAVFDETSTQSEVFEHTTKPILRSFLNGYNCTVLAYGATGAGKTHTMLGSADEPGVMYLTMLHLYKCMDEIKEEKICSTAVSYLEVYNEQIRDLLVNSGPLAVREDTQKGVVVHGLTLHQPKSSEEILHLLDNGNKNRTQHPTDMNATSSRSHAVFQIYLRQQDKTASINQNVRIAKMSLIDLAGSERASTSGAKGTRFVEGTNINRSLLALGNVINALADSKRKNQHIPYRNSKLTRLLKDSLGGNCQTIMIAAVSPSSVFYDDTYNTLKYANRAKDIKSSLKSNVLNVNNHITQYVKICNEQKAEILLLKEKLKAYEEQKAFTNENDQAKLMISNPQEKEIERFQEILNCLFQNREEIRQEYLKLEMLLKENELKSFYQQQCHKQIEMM
Chain of Recombinant human KIF18A (1-467 His-tagged) protein (P02550 whole entry partner): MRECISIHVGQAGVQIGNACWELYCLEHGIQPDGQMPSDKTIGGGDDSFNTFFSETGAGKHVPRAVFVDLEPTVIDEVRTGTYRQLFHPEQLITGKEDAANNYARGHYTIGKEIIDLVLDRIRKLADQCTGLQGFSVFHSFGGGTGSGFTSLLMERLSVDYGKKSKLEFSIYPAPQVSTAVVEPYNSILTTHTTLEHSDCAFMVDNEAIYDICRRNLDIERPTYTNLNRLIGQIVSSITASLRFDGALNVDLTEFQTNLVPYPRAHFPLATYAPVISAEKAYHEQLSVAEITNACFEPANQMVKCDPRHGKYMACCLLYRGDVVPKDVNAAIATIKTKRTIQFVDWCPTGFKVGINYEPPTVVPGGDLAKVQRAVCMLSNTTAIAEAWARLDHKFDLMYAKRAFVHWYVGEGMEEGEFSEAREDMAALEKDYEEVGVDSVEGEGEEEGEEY
Chain of Recombinant human KIF18A (1-467 His-tagged) protein (P02554 whole entry partner): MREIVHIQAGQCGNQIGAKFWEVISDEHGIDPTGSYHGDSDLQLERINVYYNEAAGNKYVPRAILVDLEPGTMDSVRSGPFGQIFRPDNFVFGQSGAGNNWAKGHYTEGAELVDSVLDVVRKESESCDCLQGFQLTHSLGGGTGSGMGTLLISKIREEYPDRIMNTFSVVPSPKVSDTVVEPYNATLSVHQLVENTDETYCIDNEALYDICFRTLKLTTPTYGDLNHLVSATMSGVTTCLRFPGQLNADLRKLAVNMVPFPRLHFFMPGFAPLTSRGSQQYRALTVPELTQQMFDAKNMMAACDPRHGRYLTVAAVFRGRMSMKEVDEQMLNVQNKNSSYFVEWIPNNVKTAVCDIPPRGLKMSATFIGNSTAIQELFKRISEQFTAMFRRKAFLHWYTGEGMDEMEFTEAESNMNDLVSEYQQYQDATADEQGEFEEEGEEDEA

| Structure (SMILES) | IC50 [nM] |
| --- | --- |
| Cc1cc(NC(=O)c2ccc(NS(=O)(=O)C3(CO)CC3)cc2N2CCC3(CC2)CC3)nc(N2CCC(F)(F)CC2)n1 [Example 11-69] | 99 |
| Cc1cc(NC(=O)c2ccc(NS(=O)(=O)CCO)cc2N2CCC3(CC2)CC3)nc(N2CCC23COC3)n1 [Example 11-9, 4-((2-Hydroxyethyl)sulfonamido)-N-(6-methyl-2-(6-oxa-1-azaspiro[3.3]heptan-1-yl)pyrimidin-4-yl)-2-(6-azaspiro[2.5]octan-6-yl)benzamide] | 128 |
| Cc1cc(NC(=O)c2ccc(NS(=O)(=O)[C@H](C)CO)cc2N2CCC3(CC2)CC3)nc(N2CCO[C@H](C)C2)n1 [Example 6-23-2, 4-(((R)-2-Hydroxy-1-methylethyl)sulfonamido)-N-(6-methyl-2-((R)-2-methylmorpholino)pyrimidin-4-yl)-2-(6-azaspiro[2.5]octan-6-yl)benzamide] | 37.3 |
| Cc1cc(NC(=O)c2ccc(NS(=O)(=O)CCO)cc2N2CCC3(CC2)CC3)nc(N2CCC[C@@H](O)C2)n1 [Example 11-54, (R)-4-((2-Hydroxyethyl)sulfonamido)-N-(2-(3-hydroxypiperidin-1-yl)-6-methylpyrimidin-4-yl)-2-(6-azaspiro[2.5]octan-6-yl)benzamide] | 74 |
| Cc1cc(NC(=O)c2ccc(NS(C)(=O)=O)cc2N2CCC3(CC2)CC3)nc(N2CCO[C@H](C)C2)n1 [Example 6-5, (R)-N-(6-Methyl-2-(2-methylmorpholino)pyrimidin-4-yl)-4-(methylsulfonamido)-2-(6-azaspiro[2.5]octan-6-yl)benzamide] | 120 |
| Cc1cc(NC(=O)c2ccc([S@@](=N)(=O)C3CC3)cc2N2CCC3(CC2)CC3)nc(N2CCO[C@H](C)C2)n1 [Example 19-8, 2-(6-Azaspiro[2.5]octan-6-yl)-4-(R-cyclopropylsulfonimidoyl)-N-(6-methy-2-((2R)-2-methyl-4-moprpholinyl)-4-pyrimidinyl)benzamide] | 78 |
| Cc1cc(NC(=O)c2ccc(NS(=O)(=O)CCO)cc2N2CCC3(CC2)CC3)nc(NC(C)(C)CO)n1 [Example 11-62, N-(2-((1-Hydroxy-2-methylpropan-2-yl)amino)-6-methylpyrimidin-4-yl)-4-((2-hydroxyethyl)sulfonamido)-2-(6-azaspiro[2.5]octan-6-yl)benzamide] | 18 |
| Cc1cc(NC(=O)c2ccc(NS(=O)(=O)CCO)cc2N2CCC3(CC2)CC3)nc(N2CC(F)C2)n1 [Example 11-5, N-(2-(3-Fluoroazetidin-1-yl)-6-methylpyrimidin-4-yl)-4-((2-hydroxyethyl)sulfonamido)-2-(6-azaspiro[2.5]octan-6-yl)benzamide] | 32 |
| Cc1cc(NC(=O)c2ccc(NS(=O)(=O)C[C@@H](C)O)cc2N2CCC3(CC2)CC3)nc(N2CCC(F)(F)CC2)n1 [Example 6-32-1, (R)-N-(2-(4,4-Difluoropiperidin-1-yl)-6-methylpyrimidin-4-yl)-4-((2-hydroxypropyl)sulfonamido)-2-(6-azaspiro[2.5]octan-6-yl)benzamide] | 112 |
| O=C(Nc1ccnc(N2CC(F)C2)n1)c1ccc(NS(=O)(=O)CCO)cc1N1CCC2(CC1)CC2 [Example 11-6, N-(2-(3-Fluoroazetidin-1-yl)pyrimidin-4-yl)-4-((2-hydroxyethyl)sulfonamido)-2-(6-azaspiro[2.5]octan-6-yl)benzamide] | 68 |
| Cc1cc(NC(=O)c2ccc(NS(=O)(=O)C3CCC3)cc2N2CCC3(CC2)CC3)nc(N2CC(F)(F)C2)n1 [Example 6-13, 4-(Cyclobutanesulfonamido)-N-(2-(3,3-difluoroazetidin-1-yl)-6-methylpyrimidin-4-yl)-2-(6-azaspiro[2.5]octan-6-yl)benzamide] | 52 |
| C[C@H](O)CS(=O)(=O)Nc1ccc(C(=O)Nc2ccnc(N3CCO[C@H](C)C3)n2)c(N2CCC3(CC2)CC3)c1 [Example 6-33-1, 4-(((S)-2-Hydroxypropyl)sulfonamido)-N-(2-((R)-2-methylmorpholino)pyrimidin-4-yl)-2-(6-azaspiro[2.5]octan-6-yl)benzamide] | 115 |
| O=C(Nc1ccnc(N2CCC(F)(F)CC2)c1)c1ccc(S(=O)(=O)NCCO)cc1N1CCC2(CC1)CC2 [Example 17, N-(2-(4,4-Difluoropiperidin-1-yl)pyridin-4-yl)-4-(N-(2-hydroxyethyl)sulfamoyl)-2-(6-azaspiro[2.5]octan-6-yl)benzamide] | 23 |
| Cc1cc(NC(=O)c2cc(Cl)c(NS(=O)(=O)CCO)cc2N2CCC3(CC2)CC3)nc(N2CCC(F)(F)CC2)n1 [Example 6-34, 5-Chloro-N-(2-(4,4-difluoropiperidin-1-yl)-6-methylpyrimidin-4-yl)-4-((2-hydroxyethyl)sulfonamido)-2-(6-azaspiro[2.5]octan-6-yl)benzamide] | 92.2 |
| CCS(=O)(=O)c1ccc(C(=O)Nc2cc(C)nc(N3CCC(F)(F)CC3)n2)c(N2CCC3(CC2)CC3)c1 [Example 14-2, N-(2-(4,4-Difluoropiperidin-1-yl)-6-methylpyrimidin-4-yl)-4-(ethylsulfonyl)-2-(6-azaspiro[2.5]octan-6-yl)benzamide] | 108 |
| CCS(=O)(=O)Nc1ccc(C(=O)Nc2cc(C)nc(N3CCO[C@H](C)C3)n2)c(N2CCC3(CC2)CC3)c1 [Example 6-6, (R)-4-(Ethylsulfonamido)-N-(6-methyl-2-(2-methylmorpholino)pyrimidin-4-yl)-2-(6-azaspiro[2.5]octan-6-yl)benzamide] | 67 |
| Cc1cc(NC(=O)c2ccc(NS(=O)(=O)CCO)cc2N2CCC3(CC2)CC3)nc(N2CCC3CC32)n1 (stereo not drawn) [Example 11-28, N-(2-(2-Azabicyclo[3.1.0]hexan-2-yl)-6-methylpyrimidin-4-yl)-4-((2-hydroxyethyl)sulfonamido)-2-(6-azaspiro[2.5]octan-6-yl)benzamide] | 59 |
| O=C(Nc1ccnc(N2CCC(F)(F)CC2)n1)c1ccc(S(=O)(=O)NCCO)cc1N1CCC2(CC1)CC2 [Example 17-4, N-(2-(4,4-Difluoropiperidin-1-yl)pyrimidin-4-yl)-4-(N-(2-hydroxyethyl)sulfamoyl)-2-(6-azaspiro[2.5]octan-6-yl)benzamide] | 23 |
| Cc1cc(NC(=O)c2ccc(NS(=O)(=O)[C@H](C)CO)cc2N2CCC3(CC2)CC3)nc(N2CC(F)(F)C2)n1 (single isomer, unassigned) [Example 11-76] | 20 |
| O=C(Nc1ccnc(N2CCC(F)CC2)n1)c1ccc(NS(=O)(=O)CCO)cc1N1CCC2(CC1)CC2 [Example 11-56, N-(2-(4-Fluoropiperidin-1-yl)pyrimidin-4-yl)-4-((2-hydroxyethyl)sulfonamido)-2-(6-azaspiro[2.5]octan-6-yl)benzamide] | 22 |
| C[C@@H]1CN(c2nccc(NC(=O)c3ccc(NS(=O)(=O)[C@H](C)CO)cc3N3CCC4(CC3)CC4)n2)CCO1 [Example 6-24-2, 4-(((R)-2-hydroxy-1-methylethyl)sulfonamido)-N-(2-((R)-2-methylmorpholino)pyrimidin-4-yl)-2-(6-azaspiro[2.5]octan-6-yl)benzamide] | 28 |
| Cc1cc(NC(=O)c2ccc(NS(=O)(=O)CCO)cc2N2CCC3(CC2)CC3)nc(N2CCC(C)(F)CC2)n1 [Example 11-52, N-(2-(4-Fluoro-4-methylpiperidin-1-yl)-6-methylpyrimidin-4-yl)-4-((2-hydroxyethyl)sulfonamido)-2-(6-azaspiro[2.5]octan-6-yl)benzamide] | 63 |
| Cc1cc(NC(=O)c2ccc(NS(=O)(=O)C[C@@H](C)O)cc2N2CCC3(CC2)CC3)nc(N2CCO[C@H](C)C2)n1 [Example 6-27-1, 4-(((R)-2-Hydroxypropoyl)sulfonamido)-N-(6-methyl-2-((R)-2-methylmorpholino)pyrimidin-4-yl)-2-(6-azaspiro[2.5]octan-6-yl)benzamide] | 162 |
| Cc1cc(NC(=O)c2ccc(NS(=O)(=O)CCO)cc2N2CCC3(CC2)CC3)nc(N2CCCCC2)n1 [Example 11-36, 4-((2-Hydroxyethyl)sulfonamido)-N-(6-methyl-2-(piperidin-1-yl)pyrimidin-4-yl)-2-(6-azaspiro[2.5]octan-6-yl)benzamide] | 82 |
| Cc1cc(NC(=O)c2ccc(NS(=O)(=O)CCO)cc2N2CCC3(CC2)CC3)nc(N2CCC[C@H](O)C2)n1 [Example 11-53, (S)-4-((2-Hydroxyethyl)sulfonamido)-N-(2-(3-hydroxypiperidin-1-yl)-6-methylpyrimidin-4-yl)-2-(6-azaspiro[2.5]octan-6-yl)benzamide] | 105 |
| Cc1cc(NC(=O)c2ccc(S(=N)(=O)C(C)C)cc2N2CCC3(CC2)CC3)nc(N2CCC(F)(F)CC2)n1 (stereo not drawn) [Example 19-5, N-(2-(4,4-Difluoropiperidin-1-yl)-6-methylpyrimidin-4-yl)-4-(propan-2-ylsulfonimidoyl)-2-(6-azaspiro[2.5]octan-6-yl)benzamide] | 175 |
| Cc1cc(NC(=O)c2ccc(S(C)(=N)=O)cc2N2CCC3(CC2)CC3)nc(N2CCC(F)(F)CC2)n1 (stereo not drawn) [Example 19-2, N-(2-(4,4-Difluoropiperidin-1-yl)-6-methylpyrimidin-4-yl)-4-(methylsulfonimidoyl)-2-(6-azaspiro[2.5]octan-6-yl)benzamide] | 438 |
| Cc1cc(NC(=O)c2ccc(NS(=O)(=O)C3COC3)cc2N2CCC3(CC2)CC3)nc(N2CCC(F)(F)CC2)n1 [Example 6-12, N-(2-(4,4-Difluoropiperidin-1-yl)-6-methylpyrimidin-4-yl)-4-(oxetane-3-sulfonamido)-2-(6-azaspiro[2.5]octan-6-yl)benzamide] | 40 |
| Cc1cc(NC(=O)c2ccc(NS(=O)(=O)CCO)cc2N2CCC3(CC2)CC3)nc(N2CCC(C)(O)CC2)n1 [Example 11-38, N-(2-(4-Hydroxy-4-methylpiperidin-1-yl)-6-methylpyrimidin-4-yl)-4-((2-hydroxyethyl)sulfonamido)-2-(6-azaspiro[2.5]octan-6-yl)benzamide] | 65 |
| Cc1cc(NC(=O)c2ccc(S(=O)(=O)NCCO)cc2N2CCC3(CC2)CC3)nc(N2CCC(F)(F)CC2)n1 [Example 17-3, N-(2-(4,4-Difluoropiperidin-1-yl)-6-methylpyrimidin-4-yl)-4-(N-(2-hydroxyethyl)sulfamoyl)-2-(6-azaspiro[2.5]octan-6-yl)benzamide] | 63 |
